In PubChem BioAssay (NCI):
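Step 1: Grow cells in 96-well plates. Step 2: Expose to compound for 48 hours at 5 concentrations. Step 3: Interpolate endpoints linearly; if unreached, use highest concentration. The concentration for full growth arrest is given as TGI.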

How the values were obtained:
Assay in all cases: growth of human tumour cells (NCI), 48 h
T-47D breast = test system: T-47D breast
SK-OV-3 ovarian = test system: SK-OV-3 ovarian
LOX IMVI melanoma = test system: LOX IMVI melanoma
HCC-2998 colon = test system: HCC-2998 colon
K-562 leukemia = test system: K-562 leukemia
NCI-H226 lung = test system: NCI-H226 lung
EKVX NSCLC = test system: EKVX NSCLC
KM12 colon = test system: KM12 colon
IGROV1 ovarian = test system: IGROV1 ovarian
DU-145 prostate = test system: DU-145 prostate
MALME-3M melanoma = test system: MALME-3M melanoma
PC-3 prostate = test system: PC-3 prostate
CAKI-1 renal = test system: CAKI-1 renal
CCRF-CEM leukemia = test system: CCRF-CEM leukemia
A549 NSCLC = test system: A549 NSCLC
SNB-19 CNS = test system: SNB-19 CNS
RXF 393 renal = test system: RXF 393 renal
RPMI-8226 leukemia = test system: RPMI-8226 leukemia
NCI/ADR-RES ovarian = test system: NCI/ADR-RES ovarian
OVCAR-8 ovarian = test system: OVCAR-8 ovarian
SR leukemia = test system: SR leukemia
SK-MEL-2 melanoma = test system: SK-MEL-2 melanoma
MDA-N = test system: MDA-N
SW-620 colon = test system: SW-620 colon
MDA-MB-231 breast = test system: MDA-MB-231 breast
BT-549 breast = test system: BT-549 breast
HCT-116 colon = test system: HCT-116 colon
NCI-H460 lung = test system: NCI-H460 lung
OVCAR-5 ovarian = test system: OVCAR-5 ovarian
U251 CNS = test system: U251 CNS
UACC-62 melanoma = test system: UACC-62 melanoma
ACHN renal = test system: ACHN renal
MOLT-4 leukemia = test system: MOLT-4 leukemia
COLO 205 colon = test system: COLO 205 colon
786-0 renal = test system: 786-0 renal
SF-268 CNS = test system: SF-268 CNS
HOP-62 NSCLC = test system: HOP-62 NSCLC
NCI-H522 lung = test system: NCI-H522 lung
SN12C renal = test system: SN12C renal
OVCAR-4 ovarian = test system: OVCAR-4 ovarian
NCI-H23 lung = test system: NCI-H23 lung
HCT-15 colon = test system: HCT-15 colon
SF-295 CNS = test system: SF-295 CNS
HT29 colon = test system: HT29 colon
HS 578T breast = test system: HS 578T breast
M14 melanoma = test system: M14 melanoma
SK-MEL-5 melanoma = test system: SK-MEL-5 melanoma
OVCAR-3 ovarian = test system: OVCAR-3 ovarian
SK-MEL-28 melanoma = test system: SK-MEL-28 melanoma
A498 renal = test system: A498 renal
MDA-MB-435 = test system: MDA-MB-435
SNB-75 CNS = test system: SNB-75 CNS
UO-31 renal = test system: UO-31 renal
MCF7 breast = test system: MCF7 breast
UACC-257 melanoma = test system: UACC-257 melanoma
HOP-92 NSCLC = test system: HOP-92 NSCLC
TK-10 renal = test system: TK-10 renal
SF-539 CNS = test system: SF-539 CNS

CC[C@H]1OC([C@H](O)C/C=C\C#C[Si](C)(C)C)C/C=C\C[C@H]1O[Si](C)(C)C(C)(C)C (stereo partly drawn)
TGI (T-47D breast): > 100 µM
TGI (SK-OV-3 ovarian): > 100 µM
TGI (LOX IMVI melanoma): 36.3 µM
TGI (HCC-2998 colon): > 100 µM
TGI (K-562 leukemia): > 100 µM
TGI (NCI-H226 lung): > 100 µM
TGI (EKVX NSCLC): > 100 µM
TGI (KM12 colon): > 100 µM
TGI (IGROV1 ovarian): > 100 µM
TGI (DU-145 prostate): > 100 µM
TGI (MALME-3M melanoma): > 100 µM
TGI (PC-3 prostate): > 100 µM
TGI (CAKI-1 renal): > 100 µM
TGI (CCRF-CEM leukemia): > 100 µM
TGI (A549 NSCLC): > 100 µM
TGI (SNB-19 CNS): > 100 µM
TGI (RXF 393 renal): > 100 µM
TGI (RPMI-8226 leukemia): > 100 µM
TGI (NCI/ADR-RES ovarian): > 100 µM
TGI (OVCAR-8 ovarian): > 100 µM
TGI (SR leukemia): > 100 µM
TGI (SK-MEL-2 melanoma): > 100 µM
TGI (MDA-N): > 100 µM
TGI (SW-620 colon): > 100 µM
TGI (MDA-MB-231 breast): > 100 µM
TGI (BT-549 breast): > 100 µM
TGI (HCT-116 colon): > 100 µM
TGI (NCI-H460 lung): > 100 µM
TGI (OVCAR-5 ovarian): > 100 µM
TGI (U251 CNS): > 100 µM
TGI (UACC-62 melanoma): > 100 µM
TGI (ACHN renal): > 100 µM
TGI (MOLT-4 leukemia): > 100 µM
TGI (COLO 205 colon): > 100 µM
TGI (786-0 renal): > 100 µM
TGI (SF-268 CNS): > 100 µM
TGI (HOP-62 NSCLC): > 100 µM
TGI (NCI-H522 lung): > 100 µM
TGI (SN12C renal): > 100 µM
TGI (OVCAR-4 ovarian): > 100 µM
TGI (NCI-H23 lung): > 100 µM
TGI (HCT-15 colon): > 100 µM
TGI (SF-295 CNS): > 100 µM
TGI (HT29 colon): > 100 µM
TGI (HS 578T breast): > 100 µM
TGI (M14 melanoma): > 100 µM
TGI (SK-MEL-5 melanoma): > 100 µM
TGI (OVCAR-3 ovarian): > 100 µM
TGI (SK-MEL-28 melanoma): > 100 µM
TGI (A498 renal): > 100 µM
TGI (MDA-MB-435): > 100 µM
TGI (SNB-75 CNS): > 100 µM
TGI (UO-31 renal): > 100 µM
TGI (MCF7 breast): > 100 µM

Cc1nc2c(sc3nc4ccccc4n32)c(=O)[nH]1
TGI (T-47D breast): > 100 µM
TGI (UACC-257 melanoma): > 100 µM
TGI (SK-OV-3 ovarian): > 100 µM
TGI (LOX IMVI melanoma): > 100 µM
TGI (HCC-2998 colon): > 100 µM
TGI (NCI-H226 lung): > 100 µM
TGI (EKVX NSCLC): > 100 µM
TGI (KM12 colon): > 100 µM
TGI (IGROV1 ovarian): > 100 µM
TGI (DU-145 prostate): > 100 µM
TGI (MALME-3M melanoma): > 100 µM
TGI (PC-3 prostate): > 100 µM
TGI (CAKI-1 renal): > 100 µM
TGI (CCRF-CEM leukemia): > 100 µM
TGI (A549 NSCLC): > 100 µM
TGI (SNB-19 CNS): > 100 µM
TGI (RXF 393 renal): > 100 µM
TGI (RPMI-8226 leukemia): > 100 µM
TGI (NCI/ADR-RES ovarian): > 100 µM
TGI (OVCAR-8 ovarian): > 100 µM
TGI (SR leukemia): > 100 µM
TGI (HOP-92 NSCLC): > 100 µM
TGI (SK-MEL-2 melanoma): > 100 µM
TGI (MDA-N): > 100 µM
TGI (SW-620 colon): > 100 µM
TGI (MDA-MB-231 breast): > 100 µM
TGI (BT-549 breast): > 100 µM
TGI (HCT-116 colon): > 100 µM
TGI (OVCAR-5 ovarian): > 100 µM
TGI (U251 CNS): > 100 µM
TGI (UACC-62 melanoma): > 100 µM
TGI (ACHN renal): > 100 µM
TGI (MOLT-4 leukemia): > 100 µM
TGI (COLO 205 colon): > 100 µM
TGI (786-0 renal): > 100 µM
TGI (SF-268 CNS): > 100 µM
TGI (HOP-62 NSCLC): > 100 µM
TGI (NCI-H522 lung): > 100 µM
TGI (TK-10 renal): > 100 µM
TGI (OVCAR-4 ovarian): > 100 µM
TGI (SF-539 CNS): > 100 µM
TGI (NCI-H23 lung): > 100 µM
TGI (HCT-15 colon): > 100 µM
TGI (SF-295 CNS): > 100 µM
TGI (HS 578T breast): > 100 µM
TGI (M14 melanoma): > 100 µM
TGI (SK-MEL-5 melanoma): > 100 µM
TGI (OVCAR-3 ovarian): > 100 µM
TGI (SK-MEL-28 melanoma): > 100 µM
TGI (A498 renal): > 100 µM
TGI (MDA-MB-435): > 100 µM
TGI (SNB-75 CNS): > 100 µM
TGI (UO-31 renal): > 100 µM
TGI (MCF7 breast): > 100 µM
